One may read the Kb as the equilibrium dissociation constant of an antagonist, usually derived from a functional assay.

Data on one molecule can be found in US4921860A, “Quinuclidyl- and tropanyl-pyridyl ethers as 5-HT3 receptor antagonists” (John Wyeth and Brother, Limited, priority 1987, dated 1990).

For test [1], the target named is T1, 5-HT3 receptors (Rattus norvegicus, UniProt P35563).
T1 construct: tested for 5-HT3 receptor antagonism in the isolated vagus nerve of the rat; from tissue; host or cells: isolated cervical vagus nerve of the rat
T1 sequence (P35563 24-483): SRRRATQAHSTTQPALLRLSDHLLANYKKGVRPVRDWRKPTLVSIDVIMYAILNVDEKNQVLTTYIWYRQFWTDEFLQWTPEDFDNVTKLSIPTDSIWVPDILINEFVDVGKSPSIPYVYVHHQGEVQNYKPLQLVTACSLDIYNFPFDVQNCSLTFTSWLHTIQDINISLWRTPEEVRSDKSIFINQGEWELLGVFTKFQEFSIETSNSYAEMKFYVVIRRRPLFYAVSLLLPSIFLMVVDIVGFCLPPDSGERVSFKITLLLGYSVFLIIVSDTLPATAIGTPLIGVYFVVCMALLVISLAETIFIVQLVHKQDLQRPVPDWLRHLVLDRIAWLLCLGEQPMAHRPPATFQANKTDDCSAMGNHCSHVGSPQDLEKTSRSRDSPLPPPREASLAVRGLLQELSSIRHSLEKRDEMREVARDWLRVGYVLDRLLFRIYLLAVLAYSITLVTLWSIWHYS
The test can be described thus: 5-HT3 receptor antagonism in the isolated vagus nerve of the rat (5-HT induced depolarisation). The format is cell-based. To be noted: isolated rat cervical vagus nerve; estimated from 5-HT concentration ratios; read-out: apparent pKB (KB is the antagonist dissociation constant) (converted). As to the method: The pyridyl ethers are tested for 5-HT3 receptor antagonism in the isolated vagus nerve of the rat by a method based upon that of Ireland S. J. and Tyers M. B. Brit. J. Phamacol., 1987, 90, 229-238. The procedure relies upon the ability of 5-HT to induce depolaraisation of neurones in the cervical vagus nerve by a direct action of 5-HT3 receptors. A concentration response curve to 5-HT induced depolaraisation is obtained and the antagonists are added to the bath containing the isolated nerve before repeating the 5-HT concentration-response curve. Antagonist potency is estimated from the 5-HT concentration ratios and expressed as an apparent pKB value (where KB is the antagonist dissociation constant).

Test [2] concerns the target T2, 5-HT3 receptors (Oryctolagus cuniculus, UniProt A0A5F9C9J3).
T2 construct: 5-HT3 antagonistic activity in the isolated right atrium of the rabbit heart; from tissue; host or cells: isolated right atrium of the rabbit heart (sympathetic nerve terminals)
T2 sequence (A0A5F9C9J3 1-494): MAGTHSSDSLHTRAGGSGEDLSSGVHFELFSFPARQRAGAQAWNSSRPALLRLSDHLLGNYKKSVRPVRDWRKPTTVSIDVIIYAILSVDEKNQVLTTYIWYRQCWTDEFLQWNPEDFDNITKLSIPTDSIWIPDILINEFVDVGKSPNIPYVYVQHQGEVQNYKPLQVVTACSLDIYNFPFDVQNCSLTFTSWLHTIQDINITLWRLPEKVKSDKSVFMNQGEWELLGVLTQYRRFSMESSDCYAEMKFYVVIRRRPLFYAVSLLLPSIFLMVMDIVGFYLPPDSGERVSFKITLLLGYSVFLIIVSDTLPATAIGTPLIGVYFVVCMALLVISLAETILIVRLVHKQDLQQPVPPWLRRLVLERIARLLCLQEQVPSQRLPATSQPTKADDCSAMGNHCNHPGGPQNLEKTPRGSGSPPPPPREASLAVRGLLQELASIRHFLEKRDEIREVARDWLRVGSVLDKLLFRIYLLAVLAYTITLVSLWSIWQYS
The test can be described thus: 5-HT3 antagonistic activity in the isolated right atrium of the rabbit heart. Type of test: cell-based. Particulars: 5-HT evoked increase in spontaneous rate, read-out: apparent PKB (converted). The method, then:
The compounds of the invention are also tested for 5-HT3 antagonistic activity in the isolated right atrium of the rabbit heart based upon the method of Fozard J. R., Naunyn-Schmiedeberg's Arch. Pharmacol., 1984, 326, 36-44. The procedures relies upon the ability of 5-HT to stimulate 5-HT3 receptors present on sympathetic nerve terminals in the heart, causing release of noradrenaline which evokes an increase in the spontaneous rate of […]. The antagonist potency is expressed in a similar manner to that of the preceding test method i.e. as an apparent PKB.

Take `CN1[C@@H]2CC[C@H]1C[C@@H](Oc1ccccn1)C2` [Example 1, Endo 8 methyl-3-(2-pyridinyloxy)-8-azabicyclo[3.2.1]octane]: the Kb on 5-HT3 receptors [1] was 631 nM. Besides, on 5-HT3 receptors [2], the Kd is 39.8 nM.
